Measured values from patent US20250177555A1 (priority 2022, published 2025).

Columns and labels:
[1] = system: CNV-G gectosome cell entry; assay type: cell-based, human; conditions: read-out: IC50, CNV-G gectosome inhibition
[2] = system: CNV-G pseudotyped lentiviral infection; assay type: cell-based
[3] = system: VSV-G gectosome uptake, 293ColorSwitch cells; assay type: cell-based; conditions: Cre cargo
[4] = system: CNV-G gectosome uptake, 293ColorSwitch cells; assay type: cell-based
BlaM-Vpr-GFP1-10 = test: cell-based or functional assay

C/C1=C/C(=O)O[C@@H]2C[C@@H](CC[C@H](C)/C=C\CC1)O[C@@](O)([C@@H]1CSC(=O)N1)C2 [Latrunculin B]
IC50 [1]: 1.96 µM | effect on CNV-G pseudotyped lentiviral infection [2]: effect of Latrunculin B on CNV-G

CCCCCCCCCCCCCCCCOP(=O)([O-])OCC[N+](C)(C)C [Milterfosine]
inhibition of VSV-G gectosome uptake [3]: NOT VSV-G gectosome uptake | inhibition of CNV-G gectosome uptake [4]: specifically inhibit

COc1ccc2c(c1)CC[C@@H]1[C@@H]2CC[C@]2(C)[C@@H](NCCCCCCN3C(=O)C=CC3=O)CC[C@@H]12 [U-73122]
IC50 [1]: 3.03 µM

CNV-G-EGFP (from UniProt P13180 23-530)
efficiency of cargo transfer against the CNV-G-GFP11 and BlaM-GFP1-10 pair (BlaM-Vpr-GFP1-10): 100 fold less
